The numbers were not newly measured in patent US4994542A, “Surgical adhesive” (Asahi Glass Co., Ltd., priority 1988, dated 1991), which cites them from elsewhere.

For data set [1] the following is noted: hydrolysis products of TDI and MDI.
The conditions of data set [2]: aromatic polyisocyanates, general statement.

diaminodiphenylmethane: the “activity in a microbial mutagenicity test (Ames test)” value in data set [1] is reported as “high activity”.

For the substance diphenylmethane diisocyanates [MDI], in data set [2], the mutagenic activity result is reported as “high mutagenic activity”.

As for tolylene diamine, the “activity in a microbial mutagenicity test (Ames test)” value in data set [1] was “high activity”.

In the case of tolylene diisocyanates [TDI], the mutagenic activity entry in data set [2] is on record as “high mutagenic activity”.
